Experimental data taken from ChEMBL document CHEMBL4138210, “Synthesis and biological evaluation of some novel diastereoselective benzothiazole β-lactam conjugates” (Eur J Med Chem, 2018).
Values after ≈ are worked out from the molar mass of the structure shown.

Key:
Pseudomonas aeruginosa = experiment: Antimicrobial activity against Pseudomonas aeruginosa PAO1 after 24 to 48 hrs by broth serial dilution method; type: functional
Staphylococcus aureus = experiment: Antimicrobial activity against Staphylococcus aureus ATCC 25923 after 24 to 48 hrs by broth serial dilution method; type: functional
[1] = Hemolytic activity against human RBC at 250 uM after 1 hr relative to control; type: ADME, cell-based, Erythrocyte; conditions: red blood cells (erythrocytes), read-out: Activity
Plasmodium falciparum = experiment: Antimalarial activity against Plasmodium falciparum K1; type: functional, organism-based
Escherichia coli = experiment: Antimicrobial activity against Escherichia coli ATCC […] after 24 to 48 hrs by broth serial dilution method; type: functional
[2] = Cytotoxicity against human HepG2 cells assessed as cell viability after 72 hrs by MTT assay relative to control; type: cell-based; design: concentration or dose not given beside the values; conditions: read-out: Activity
[3] = Plasmodium falciparum, K1, read-out: IC50

Compound	MIC (Pseudomonas aeruginosa)	MIC (Staphylococcus aureus)	hemolysis at 1 h, 250 µM [1]	IC50 (Plasmodium falciparum; [3])	MIC (Escherichia coli)	viability at 72 h [2]	IC50 (Plasmodium falciparum)
CCOc1ccc(N2C(=O)[C@H](Oc3ccc(-c4nc5ccccc5s4)cc3)[C@@H]2c2ccc([N+](=O)[O-])cc2)cc1	> 200 µg/mL	215 µg/mL (≈ 400 µM)	2.29%	11.8 µM	> 200 µg/mL	74.8%	–
COc1ccc(N2C(=O)[C@H](Oc3ccc(-c4nc5ccccc5s4)cc3)[C@@H]2c2c3ccccc3cc3ccccc23)cc1	> 200 µg/mL	231 µg/mL (≈ 399 µM)	0.89%	–	> 200 µg/mL	–	Nd(Insoluble)
COc1ccc(N2C(=O)[C@H](Oc3ccc(-c4nc5ccccc5s4)cc3)[C@@H]2c2ccc(Cl)cc2)cc1	> 200 µg/mL	205 µg/mL (≈ 400 µM)	0.93%	40.7 µM	> 200 µg/mL	–	–
Cc1ccc(N2C(=O)[C@H](Oc3cccc(-c4nc5ccccc5s4)c3)[C@@H]2c2ccc(Cl)cc2)cc1	> 200 µg/mL	199 µg/mL (≈ 400 µM)	1.13%	76.7 µM	> 200 µg/mL	–	–
COc1ccc(N2C(=O)[C@H](Oc3ccc(-c4nc5ccccc5s4)cc3)[C@@H]2c2cccc([N+](=O)[O-])c2)cc1	> 200 µg/mL	26 µg/mL (≈ 49.7 µM)	1.02%	17.7 µM	> 200 µg/mL	62.8%	–
COc1ccc(N2C(=O)[C@H](Oc3ccc(-c4nc5ccccc5s4)cc3)[C@@H]2c2ccc(OC)c(OC)c2)cc1	> 200 µg/mL	215 µg/mL (≈ 399 µM)	0.82%	9.5 µM	> 200 µg/mL	70.1%	–
CC(C)c1ccc([C@H]2[C@@H](Oc3ccc(-c4nc5ccccc5s4)cc3)C(=O)N2c2ccc(N(C)C)cc2)cc1	> 200 µg/mL	107 µg/mL (≈ 200 µM)	1.03%	> 125 µM	> 200 µg/mL	–	–
COc1ccc(N2C(=O)[C@H](Oc3cccc(-c4nc5ccccc5s4)c3)[C@@H]2c2ccc([N+](=O)[O-])cc2)cc1	> 200 µg/mL	26 µg/mL (≈ 49.7 µM)	1.56%	> 125 µM	> 200 µg/mL	99.5%	–
COc1ccc(N2C(=O)[C@H](Oc3cccc(-c4nc5ccccc5s4)c3)[C@@H]2c2ccc(Cl)cc2)cc1	> 200 µg/mL	205 µg/mL (≈ 400 µM)	2.8%	20.4 µM	> 200 µg/mL	–	–
Cc1ccc(N2C(=O)[C@H](Oc3ccc(-c4nc5ccccc5s4)cc3)[C@@H]2c2ccc(Cl)cc2)cc1	> 200 µg/mL	199 µg/mL (≈ 400 µM)	1.16%	31.1 µM	> 200 µg/mL	–	–
COc1ccc(N2C(=O)[C@H](Oc3ccc(-c4nc5ccccc5s4)cc3)[C@@H]2c2ccc([N+](=O)[O-])cc2)cc1	> 200 µg/mL	26 µg/mL (≈ 49.7 µM)	1.11%	10.4 µM	> 200 µg/mL	71.4%	–
O=C1[C@H](Oc2ccc(-c3nc4ccccc4s3)cc2)[C@H](/C=C/c2ccccc2)N1c1ccc(Cl)cc1	> 200 µg/mL	204 µg/mL (≈ 401 µM)	2.18%	60.5 µM	> 200 µg/mL	–	–
O=C1[C@H](Oc2ccc(-c3nc4ccccc4s3)cc2)[C@H](c2ccc3ccccc3c2)N1c1ccccc1	> 200 µg/mL	30 µg/mL (≈ 60.2 µM)	0.87%	16.3 µM	> 200 µg/mL	58%	–
CCOc1ccc(N2C(=O)[C@H](Oc3cccc(-c4nc5ccccc5s4)c3)[C@@H]2c2ccc([N+](=O)[O-])cc2)cc1	> 200 µg/mL	215 µg/mL (≈ 400 µM)	1.02%	6 µM	> 200 µg/mL	101%	–
COc1cc(N2C(=O)[C@H](Oc3ccc(-c4nc5ccccc5s4)cc3)[C@@H]2c2ccc([N+](=O)[O-])cc2)cc(OC)c1OC	> 200 µg/mL	29 µg/mL (≈ 49.7 µM)	1.09%	–	> 200 µg/mL	62.4%	Nd(Insoluble)
Cc1ccc(N2C(=O)[C@H](Oc3ccc(-c4nc5ccccc5s4)cc3)[C@@H]2c2ccc([N+](=O)[O-])cc2)cc1	> 200 µg/mL	25 µg/mL (≈ 49.3 µM)	1.25%	11.4 µM	> 200 µg/mL	80.7%	–
